Data published in ChEMBL document CHEMBL5321235, “Design, synthesis, and SAR study of novel flavone 1,2,4-oxadiazole derivatives with anti-inflammatory activities for the treatment of Parkinson's disease” (Eur J Med Chem, 2023).
Active and inactive are the calls of the source. The calls are words filed in the database; no cut-off is given here.

Columns and labels:
[1] = test system: BV-2; experiment: Inhibition of LPS-induced ROS production in mouse BV-2 cells at 5 uM pretreated for 18 hrs followed by LPS-stimulation and measured after 6 hrs by fluorescence microscopic analysis; format: functional, cell-based; settings: time 24.0 hrs
[2] = test system: BV-2; experiment: Antiinflammatory activity in mouse BV-2 cells assessed as inhibition of LPS-induced NO production at 5 uM pretreated for 18 hrs followed by LPS-induction and measured after 6 hrs relative to control; format: functional; parameters: scale not given: the % may be the effect or the level left; settings: time 24 hrs
[3] = test system: BV-2; experiment: Cytotoxicity against mouse BV-2 cells assessed as reduction in cell viability at 5 uM pretreated for 18 hrs followed by LPS-stimulation and measured after 6 hrs by MTT assay; format: toxicity, cell-based; settings: bv-2, 24 h
[4] = test system: Microglia; experiment: Neuroprotective activity against MPTP-induced apoptosis in mouse microglia assessed as reduction in apoptotic cells in brain tissue at 15 mg/kg, ip administered with compound once daily for 2 weeks followed by MPTP addition on day 8 and measured after 2 weeks of compound addition by TUNEL staining based immunofluorescence analysis; format: functional, organism-based

| Compound | inhibition [1] | Activity [2] | Activity [3] | Activity [4] |
| --- | --- | --- | --- | --- |
| COc1ccc(-c2coc3cc(O)cc(O)c3c2=O)cc1 | Active |  |  |  |
| Cc1c(-c2ccccc2)oc2c(-c3nc(-c4ccsc4)no3)cccc2c1=O | Active |  |  |  |
| Cc1ccc(-c2noc(-c3cccc4c(=O)c(C)c(-c5ccccc5)oc34)n2)cc1 | Active | 22.4% |  |  |
| Cc1c(-c2ccccc2)oc2c(-c3nc(-c4cccc(F)c4)no3)cccc2c1=O | Active | 22.4% |  |  |
| Cc1c(-c2ccccc2)oc2c(-c3nc(-c4cccc(Br)c4)no3)cccc2c1=O | Active | 41.6% | Non-Toxic |  |
| C#CCN[C@@H]1CCc2ccccc21 | Active |  |  | Active |
| Cc1c(-c2ccccc2)oc2c(-c3nc(-c4ccc(Br)cc4)no3)cccc2c1=O | Active | 41.6% | Non-Toxic |  |
| Cc1c(-c2ccccc2)oc2c(-c3nc(-c4ccccc4Br)no3)cccc2c1=O | Active | 41.6% |  |  |
| Cc1ccc(-c2noc(-c3ccc(F)c(F)c3)n2)cn1 | Active |  |  |  |
